According to ChEMBL document CHEMBL5543113, “Amphiphilic α-Peptoid-deoxynojirimycin Conjugate-based Multivalent Glycosidase Inhibitor for Hypoglycemic Effect and Fluorescence Imaging” (J Med Chem, 2024):

Experiments:
Mus musculus [1] = test: Hypoglycemic activity in KKAy diabetic mouse model assessed as decrease in PBG level at 1.6 mg/kg, po co-administered with maltose and measured after 15 mins by glucometer relative to control; type: functional; design: scale not given: the % may be the effect or the level left; settings: 0.25 h
[2] = Toxicity in C57BL/6J mouse assessed as effect on lung morphology at 1.6 mg/kg, po co-administered with maltose for 7 days by Hematoxylin and eosin staining based analysis; type: organism-based; settings: in vivo, 168 h, time 7 day
[3] = Drug uptake in C57/6J mouse lung assessed as increase in fluorescence at 5 x 10^-5M, po administered as Nile red complex and measured after 4 hrs by fluorescence imaging analysis; type: ADME, organism-based; settings: in vivo, dose 5 10^-5M
[4] = Binding affinity to mouse alpha-glucosidase assessed as miglitol binding constant at 200 uM administered as Nile red complex in presence of miglitol by fluorescence spectra analysis
Mus musculus [5] = test: Hypoglycemic activity in KKAy diabetic mouse model assessed as blood glucose level at 1.6 mg/kg, po co-administered with maltose and measured after 60 mins by glucometer (reference value: 582.6 +/- 22.9 mg/dl); type: functional; settings: 1 h
Aspergillus niger = test: Potency index, ratio of miglitol Ki to test compound Ki for inhibition of Aspergillus niger Alpha-glucosidase incubated for 10 mins by Lineweaver-Burk plot analysis
Mus musculus [6] = test: Hypoglycemic activity in KKAy diabetic mouse model assessed as decrease in PBG level at 1.6 mg/kg, po co-administered with maltose and measured after 60 mins by glucometer relative to control; type: functional; design: scale not given: the % may be the effect or the level left; settings: 1 h
Mus musculus [7] = test: Hypoglycemic activity in C57BL/6J mouse assessed as blood glucose level at 0.4 mg/kg, po co-administered with maltose and measured after 15 mins by glucometer (380.8 +/- 20.6 mg/dl); type: functional; settings: 0.25 h
Mus musculus [8] = test: Binding affinity to mouse alpha-glucosidase assessed as fluorescence intensity at 2 x 10^-4 M administered as Nile red complex by fluorescence spectra analysis (reference value: 3586); settings: dose 2.0 10^-4M
Mus musculus [9] = test: Hypoglycemic activity in C57BL/6J mouse assessed as decrease in PBG level at 1.6 mg/kg, po co-administered with maltose and measured after 30 mins by glucometer relative to control; type: functional; design: scale not given: the % may be the effect or the level left; settings: 0.5 h
[10] = Self assembly property of the compound in water assessed as diameter at 1 x 10^-4 M by transmission electron microscopic analysis; type: physicochemical; settings: buffer, 100 µM; dose 1 10^-4M
[11] = Toxicity in C57BL/6J mouse assessed as effect on liver morphology at 1.6 mg/kg, po co-administered with maltose for 7 days by Hematoxylin and eosin staining based analysis; type: organism-based; settings: in vivo, 168 h, time 7 day
Mus musculus [12] = test: Hypoglycemic activity in C57BL/6J mouse assessed as blood glucose level at 0.8 mg/kg, po co-administered with maltose and measured after 30 mins by glucometer (380.8 +/- 20.6 mg/dL); type: functional; settings: 0.5 h
[13] = Self assembly property of the compound assessed as diameter at 2.5 x 10^-5 mol/L by dynamic light scattering spectrometric analysis; type: physicochemical; settings: 25 µM; dose 2.5 10^-5mol/L
Mus musculus [14] = test: Relative hypoglycemic rate in KKAy diabetic mouse model assessed as reduction in PBG level by measuring fold change at 1.6 mg/kg, po co-administered with maltose and measured after 30 mins by glucometer relative to miglitol; type: functional; settings: 0.5 h
[15] = Self assembly property of compound assessed as Nilered-compound complex formation by measuring critical micellar concentration at 638 nm by Nile red dye based fluorescence analysis; type: physicochemical
[16] = Toxicity in C57BL/6J mouse assessed as effect on spleen morphology at 1.6 mg/kg, po co-administered with maltose for 7 days by Hematoxylin and eosin staining based analysis; type: organism-based; settings: in vivo, 168 h, time 7 day
[17] = Cytotoxicity against human GES1 cells assessed as viable cells at 125 uM incubated for 44 hrs by MTT assay relative to control; type: toxicity, cell-based; settings: read-out: Activity
[18] = Self assembly property of the compound assessed as diameter at 5 x 10^-5 mol/L by dynamic light scattering spectrometric analysis; type: physicochemical; settings: 50 µM; dose 5 10^-5mol/L
Mus musculus [19] = test: Hypoglycemic activity in C57BL/6J mouse assessed as blood glucose level at 1.6 mg/kg, po co-administered with maltose and measured after 30 mins by glucometer (380.8 +/- 20.6 mg/dL); type: functional; settings: 0.5 h
[20] = Drug uptake in C57/6J mouse spleen assessed as increase in fluorescence at 5 x 10^-5M, po administered as Nile red complex and measured after 4 hrs by fluorescence imaging analysis; type: ADME, organism-based; settings: in vivo, dose 5 10^-5M
[21] = Stability of compound in simulated intestinal fluid at 2 x 10^-4 M administered as Nile red complex by fluorescence spectra analysis; type: ADME; settings: simulated gi fluid, 200 µM; dose 2 10^-4M
Mus musculus [22] = test: Relative hypoglycemic rate in C57BL/6J mouse assessed as molar reduction in PBG level by measuring fold change at 1.6 mg/kg, po co-administered with maltose and measured after 30 mins by glucometer relative to miglitol; type: functional; settings: 0.5 h
Mus musculus [23] = test: Hypoglycemic activity in C57BL/6J mouse assessed as molar reduction in PBG level at 1.6 mg/kg, po co-administered with maltose and measured after 30 mins by glucometer relative to control; type: functional; design: scale not given: the % may be the effect or the level left; settings: 0.5 h
Mus musculus [24] = test: Hypoglycemic activity in C57BL/6J mouse assessed as reduction in PBG level measured per DNJ unit at 1.6 mg/kg, po co-administered with maltose and measured at 15 to 30 mins by glucometer relative to control; type: functional; design: scale not given: the % may be the effect or the level left; settings: time 15-30 min
[25] = Binding affinity to mouse alpha-glucosidase assessed as DNJ binding constant at 2 x 10^-4 M administered as Nile red complex in presence of DNJ by fluorescence spectra analysis
Mus musculus [26] = test: Hypoglycemic activity in KKAy diabetic mouse model assessed as blood glucose level at 1.6 mg/kg, po co-administered with maltose and measured after 15 mins by glucometer (reference value: 582.6 +/- 22.9 mg/dl); type: functional; settings: 0.25 h
[27] = Self assembly property of the compound assessed as diameter at 1 x 10^-5 mol/L by dynamic light scattering spectrometric analysis; type: physicochemical; settings: 10 µM; dose 1 10^-5mol/L
[28] = Inhibition of rice Alpha-glucosidase incubated for 10 mins by Lineweaver-Burk plot analysis; design: species or system Oryza sativa
[29] = Self assembly property of the compound assessed as diameter at 2 x 10^-4 mol/L by dynamic light scattering spectrometric analysis; type: physicochemical; settings: 200 µM; dose 2 10^-4mol/L
[30] = Drug uptake in C57/6J mouse heart assessed as increase in fluorescence at 5 x 10^-5M, po administered as Nile red complex and measured after 4 hrs by fluorescence imaging analysis; type: ADME, organism-based; settings: in vivo, dose 5 10^-5M
Mus musculus [31] = test: Hypoglycemic activity in C57BL/6J mouse assessed as decrease in PBG level at 0.8 mg/kg, po co-administered with maltose and measured after 30 mins by glucometer relative to control; type: functional; design: scale not given: the % may be the effect or the level left; settings: 0.5 h
[32] = Self assembly property of the compound assessed as diameter at 7.5 x 10^-5 mol/L by dynamic light scattering spectrometric analysis; type: physicochemical; settings: 75 µM; dose 7.5 10^-5mol/L
Mus musculus [33] = test: Hypoglycemic activity in KKAy diabetic mouse model assessed as blood glucose level at 1.6 mg/kg, po co-administered with maltose and measured after 30 mins by glucometer (reference value: 582.6 +/- 22.9 mg/dl); type: functional; settings: 0.5 h

CCCCCCCCCCCCCCCCCCNC(=O)CN(Cc1cn(CCCCCCN2C[C@H](O)[C@@H](O)[C@H](O)[C@H]2CO)nn1)C(=O)CN(Cc1cn(CCCCCCN2C[C@H](O)[C@@H](O)[C@H](O)[C@H]2CO)nn1)C(=O)CN(Cc1cn(CCCCCCN2C[C@H](O)[C@@H](O)[C@H](O)[C@H]2CO)nn1)C(=O)CN(Cc1cn(CCCCCCN2C[C@H](O)[C@@H](O)[C@H](O)[C@H]2CO)nn1)C(C)=O
Activity (Mus musculus [1]): 6.6% | Activity [2]: Non-Toxic | Drug uptake [3]: Not Active | Ka [4]: 205 M⁻¹ | Activity (Mus musculus [5]): 432.6 mg/dL | Ratio Ki (Aspergillus niger): 121 | Activity (Mus musculus [6]): 22.1% | Activity (Mus musculus [7]): 347.8 mg/dL | Flu intensity (Mus musculus [8]): 1750 | Activity (Mus musculus [9]): 39.5% | Activity [10]: 96 nm | Activity [11]: Non-Toxic | Activity (Mus musculus [12]): 287.6 mg/dL | Activity [13]: 195 nm | fold change (FC) (Mus musculus [14]): 3 | CAC [15]: 8.31 10^-5M | Activity [16]: Non-Toxic | viability at 44 h, 125 µM [17]: > 80% | Activity [18]: 233 nm | Activity (Mus musculus [19]): 230.4 mg/dL | Drug uptake [20]: Not Active | Stability [21]: Stable | fold change (FC) (Mus musculus [22]): 4 | Activity (Mus musculus [23]): 11.5% | Activity (Mus musculus [24]): 11.5% | Ka [25]: 308 M⁻¹ | Activity (Mus musculus [26]): 327.6 mg/dL | Activity [27]: 179 nm | Ki [28]: 0.027 µM | Activity [29]: 285 nm | Drug uptake [30]: Not Active | Activity (Mus musculus [31]): 24.5% | Activity [32]: 243 nm | Activity (Mus musculus [33]): 419.7 mg/dL
